#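 Protocol summary: plate cells (96-well), add compound at 5 concentrations, incubate 48 h, interpolate endpoints linearly. GI50 is the concentration that inhibits growth by half.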 Active and inactive are the calls of the source. No stated cut-off is given here; in the data, active = GI50 up to about 1.1 µM and inactive = higher.
# Columns and labels:
# Assay in all cases: DTP human tumour cell line panel, 48 h
# Malme-3M = tested on: Malme-3M
# UACC-257 = tested on: UACC-257
# SF-295 = tested on: SF-295
# UO-31 = tested on: UO-31
# TK-10 = tested on: TK-10
# SF-539 = tested on: SF-539
# OVCAR-3 = tested on: OVCAR-3
# IGROV-1 = tested on: IGROV-1
# A549 = tested on: A549
# HOP-62 = tested on: HOP-62
# MOLT-4 = tested on: MOLT-4
# SNB-19 = tested on: SNB-19
# NCI-H23 = tested on: NCI-H23
# OVCAR-4 = tested on: OVCAR-4
# SF-268 = tested on: SF-268
# SN12C = tested on: SN12C
# COLO 205 = tested on: COLO 205
# SK-OV-3 = tested on: SK-OV-3
# KM12 = tested on: KM12
Compound,GI50 (Malme-3M),GI50 (UACC-257),GI50 (SF-295),GI50 (UO-31),GI50 (TK-10),GI50 (SF-539),GI50 (OVCAR-3),GI50 (IGROV-1),GI50 (A549),GI50 (HOP-62),GI50 (MOLT-4),GI50 (SNB-19),GI50 (NCI-H23),GI50 (OVCAR-4),GI50 (SF-268),GI50 (SN12C),GI50 (COLO 205),GI50 (SK-OV-3),GI50 (KM12)
O=c1c2cc(Br)ccc2nc(CNc2ccccc2)n1-c1ccccc1,14.8 µM (inactive),23.2 µM (inactive),24.2 µM (inactive),> 43.9 µM (inactive),21.7 µM (inactive),16.2 µM (inactive),21.8 µM (inactive),15.8 µM (inactive),21.7 µM (inactive),30.9 µM (inactive),9.59 µM (inactive),26.9 µM (inactive),13.6 µM (inactive),6.38 µM (inactive),17.4 µM (inactive),14.1 µM (inactive),17.4 µM (inactive),36.2 µM (inactive),26.7 µM (inactive)
COc1ccc(/C=N/C23CC4CC(CC(C4)C2)C3)cc1,> 100 µM (inactive),> 100 µM (inactive),> 100 µM (inactive),> 100 µM (inactive),> 100 µM (inactive),> 100 µM (inactive),> 100 µM (inactive),> 100 µM (inactive),> 100 µM (inactive),> 100 µM (inactive),> 100 µM (inactive),> 100 µM (inactive),> 100 µM (inactive),> 100 µM (inactive),> 100 µM (inactive),> 100 µM (inactive),> 10 µM (inactive),> 100 µM (inactive),> 100 µM (inactive)
CCOC(=O)N1CCc2cc(OC)c(OC)cc2/C1=C\c1ccc(OC)c(OC)c1,20.2 µM (inactive),23.6 µM (inactive),22.9 µM (inactive),21 µM (inactive),25.2 µM (inactive),23.2 µM (inactive),26 µM (inactive),45.5 µM (inactive),26.8 µM (inactive),41.6 µM (inactive),27.7 µM (inactive),39.2 µM (inactive),39 µM (inactive),–,37.8 µM (inactive),26.4 µM (inactive),21.6 µM (inactive),54 µM (inactive),29.6 µM (inactive)
CCOC(=O)C1=C(C)N(NC(=O)c2ccccc2)C2(O)CCCC12C(=O)OCC (centres undefined),> 100 µM (inactive),> 100 µM (inactive),> 100 µM (inactive),> 100 µM (inactive),–,> 100 µM (inactive),> 100 µM (inactive),> 100 µM (inactive),> 100 µM (inactive),> 100 µM (inactive),> 100 µM (inactive),> 100 µM (inactive),–,> 100 µM (inactive),> 100 µM (inactive),> 100 µM (inactive),–,> 100 µM (inactive),> 100 µM (inactive)
CC(=O)OC1COC(n2c(=S)n(-c3ccccc3)c(=O)c3cc(Br)ccc32)C(OC(C)=O)C1OC(C)=O (centres undefined),35.4 µM (inactive),55.2 µM (inactive),27.5 µM (inactive),> 100 µM (inactive),–,22.4 µM (inactive),73.3 µM (inactive),45.1 µM (inactive),40.4 µM (inactive),19.5 µM (inactive),> 100 µM (inactive),25.2 µM (inactive),43.7 µM (inactive),7.5 µM (inactive),29.1 µM (inactive),71.1 µM (inactive),> 100 µM (inactive),32.8 µM (inactive),> 100 µM (inactive)
COC(OC)c1cccc2c1C(=O)CCC1(O)c3ccccc3C1C2 (centres undefined),> 100 µM (inactive),84.1 µM (inactive),42.1 µM (inactive),> 100 µM (inactive),> 100 µM (inactive),> 100 µM (inactive),7.52 µM (inactive),> 100 µM (inactive),> 100 µM (inactive),> 100 µM (inactive),65.5 µM (inactive),> 100 µM (inactive),78.9 µM (inactive),> 100 µM (inactive),> 100 µM (inactive),> 100 µM (inactive),> 100 µM (inactive),> 100 µM (inactive),74 µM (inactive)
CCCCCCCCCCOC(=O)c1cc[n+](C)cc1,17.1 µM (inactive),19.8 µM (inactive),16.7 µM (inactive),16.5 µM (inactive),17.1 µM (inactive),16.3 µM (inactive),15.6 µM (inactive),16.6 µM (inactive),17 µM (inactive),16.8 µM (inactive),18.2 µM (inactive),16.2 µM (inactive),19.9 µM (inactive),18.1 µM (inactive),20 µM (inactive),16.9 µM (inactive),16.7 µM (inactive),16 µM (inactive),16.9 µM (inactive)
COc1ccc2c(C3(O)CCNCC3)c[nH]c2c1,> 100 µM (inactive),–,> 100 µM (inactive),> 100 µM (inactive),> 100 µM (inactive),> 100 µM (inactive),> 100 µM (inactive),> 100 µM (inactive),> 100 µM (inactive),> 100 µM (inactive),> 100 µM (inactive),> 100 µM (inactive),> 100 µM (inactive),> 100 µM (inactive),> 100 µM (inactive),> 100 µM (inactive),> 100 µM (inactive),> 100 µM (inactive),> 100 µM (inactive)
CCCCCCCCCCCc1noc2c1C(=O)C(O)CC2 (centres undefined),–,20.5 µM (inactive),21.2 µM (inactive),23.3 µM (inactive),56.6 µM (inactive),22.2 µM (inactive),17.5 µM (inactive),50 µM (inactive),22 µM (inactive),45.8 µM (inactive),22.3 µM (inactive),22.1 µM (inactive),16.3 µM (inactive),16.6 µM (inactive),38.5 µM (inactive),16.1 µM (inactive),30.5 µM (inactive),25.7 µM (inactive),22.9 µM (inactive)
CS(=O)(=O)NNS(=O)(=O)c1cccc([N+](=O)[O-])c1,> 100 µM (inactive),> 100 µM (inactive),> 100 µM (inactive),> 100 µM (inactive),> 100 µM (inactive),> 100 µM (inactive),–,> 100 µM (inactive),> 100 µM (inactive),> 100 µM (inactive),> 100 µM (inactive),> 100 µM (inactive),> 100 µM (inactive),> 100 µM (inactive),–,> 100 µM (inactive),> 100 µM (inactive),–,> 100 µM (inactive)
O=C(/C(=N/Nc1ccccc1)c1ccc([N+](=O)[O-])cc1)c1ccc([N+](=O)[O-])cc1,> 100 µM (inactive),> 100 µM (inactive),32.1 µM (inactive),> 100 µM (inactive),> 100 µM (inactive),> 100 µM (inactive),> 100 µM (inactive),> 100 µM (inactive),> 100 µM (inactive),–,> 100 µM (inactive),> 100 µM (inactive),> 100 µM (inactive),> 100 µM (inactive),–,> 100 µM (inactive),> 100 µM (inactive),> 100 µM (inactive),> 100 µM (inactive)
CCOc1ccc(NC(=O)/C(=C\c2ccc(C)cc2)C(C)=O)cc1,> 100 µM (inactive),> 100 µM (inactive),> 100 µM (inactive),> 100 µM (inactive),> 100 µM (inactive),> 100 µM (inactive),> 100 µM (inactive),> 100 µM (inactive),> 100 µM (inactive),> 100 µM (inactive),> 100 µM (inactive),> 100 µM (inactive),> 100 µM (inactive),> 100 µM (inactive),> 100 µM (inactive),> 100 µM (inactive),> 100 µM (inactive),> 100 µM (inactive),–
CC(C)C.C[N+](C)(C)C.OC(c1ccccc1)(C(F)(F)F)C(F)(F)F.OC(c1ccccc1)(C(F)(F)F)C(F)(F)F.[SiH3-],11.1 µM (inactive),14.1 µM (inactive),3.42 µM (inactive),5.79 µM (inactive),12.6 µM (inactive),2.51 µM (inactive),0.678 µM (active),–,4.79 µM (inactive),–,1.73 µM (inactive),3.26 µM (inactive),3.25 µM (inactive),7.59 µM (inactive),–,5.68 µM (inactive),6.49 µM (inactive),–,3.92 µM (inactive)
COC(=O)N(C(=O)OC)C(C(=O)O)C(C)C (centres undefined),–,> 100 µM (inactive),> 100 µM (inactive),> 100 µM (inactive),> 100 µM (inactive),> 100 µM (inactive),–,–,> 100 µM (inactive),> 100 µM (inactive),–,> 100 µM (inactive),> 100 µM (inactive),> 100 µM (inactive),> 100 µM (inactive),> 100 µM (inactive),> 100 µM (inactive),–,> 100 µM (inactive)
O=C(c1ccccc1)c1c(CC(O)c2ccccn2)n(C(=O)c2ccccc2)c2ccccc12 (centres undefined),18.6 µM (inactive),17.7 µM (inactive),20.2 µM (inactive),22.1 µM (inactive),38.4 µM (inactive),16.7 µM (inactive),17.5 µM (inactive),23.7 µM (inactive),25.3 µM (inactive),17.9 µM (inactive),17.1 µM (inactive),34.1 µM (inactive),22.1 µM (inactive),21.8 µM (inactive),28.3 µM (inactive),–,23.1 µM (inactive),–,28.4 µM (inactive)
CCCCC#COS(=O)(=O)c1ccc(C)cc1,> 100 µM (inactive),> 100 µM (inactive),> 100 µM (inactive),> 100 µM (inactive),–,> 100 µM (inactive),> 100 µM (inactive),> 100 µM (inactive),44.9 µM (inactive),> 100 µM (inactive),88.1 µM (inactive),> 100 µM (inactive),92.9 µM (inactive),65.9 µM (inactive),> 100 µM (inactive),> 100 µM (inactive),> 100 µM (inactive),88.7 µM (inactive),84.9 µM (inactive)

# — ChEMBL document CHEMBL1201862, “PubChem BioAssay data set” (2004)
